{
  "source": "patent US7041647B2",
  "about": "“Synthetic peptide having an ionophoric and antimicrobial activity” (Corporacion Para Investigaciones Biologicas, priority 2003, dated 2006)",
  "key": {"human red blood cells": {"tested_on": "human red blood cells", "experiment": "Hemolytic activity in human erythrocytes", "format": "cell-based", "conditions": "for Percentage of hemolysis, X ± SD: hematocryte 0.5%, 1 h room temperature", "experimental": "FIG. 5 Effect of P1 in human red blood cells; Human red blood cells were resuspended to a hematocryte of 0.5% in the isotonic solutions indicated in materials and methods. The peptide P1 was added at different concentrations to the cellular suspensions and incubated for 1 hour at room temperature. The supernatants were obtained by centrifugation of the suspensions at 10000 rpm for 5 min at 4° C. (International Equipment Company IEC, Centra MP4R; rotor 851), the absorbance of the supernatants was registered at 415 nm with a spectrophotometer (BIORAD). The results were expressed as percentage of hemolysis relative to the maximum hemolysis (erythrocytes hemolysed in 0.01% Tween-20).\nFIG. 6 The hemolysis caused by P1 in the erythrocytes decreases with an increase in the hematocryte; human red blood cells were resuspended at different hematocrytes: 0.5%, 2.5% and 10% in 150 mM NaCl, 5 mM KCl, 5 mM Glucose, 10 mM HEPES-tris, pH 7.4. Peptide P1 was added at different concentrations in the cellular suspension and incubated during 1 h at room temperature. The supernatants were obtained by centrifugation at 10000 rpm for 5 min at 4° C. and the absorbance at 415 nm was determined with a BIORAD spectrophotometer. The results were expressed as percentage of hemolysis relative to the maximum hemolysis (erythrocytes lysed in 0.01% Tween-20).\nThe hemolytic activity of peptide P1 was determined in heparinized human red blood cells from a volunteer (final concentration of heparin 20.4 U/ml), and washed three times in 150 mM NaCl, 9 mM Na2PO4, pH 7.3, at room temperature. The red blood cells were resuspended to an hematocryte of 0.5% in isotonic solutions 150 mM NaCl, 5 mM KCl, 5 mM Glucose, 10 mM HEPES-tris, pH 7.4; 155 mM KCl, 5 mM Glucose, 10 mM HEPES-tris, pH 7.4; 300 mM saccharose, 5 mM KCl, 5 mM Glucose, 10 mM HEPES-tris, pH 7.4; 150 mM polyethyleneglycol-1500 (PEG-1500), 5 mM KCl, 5 mM Glucose, 10 mM HEPES-tris, pH 7.4. […] The supernatants were recovered by centrifugation of the cellular suspension at 10000 rpm for 5 min at 4° C. and the absorbance at 415 nm was determined in a BIORAD spectrophotometer. The averages and standard deviations were calculated and the data were introduced to the program SigmaPlot V4.0 in order to generate the corresponding graphs (FIGS. 3 and 4)."}, "[1]": {"experiment": "Solubility in aqueous solutions", "format": "physicochemical", "text": "The peptides were synthesized by the method of solid phase synthesis (Merrifield B. 1963. Solid Phase Peptide Synthesis, Journal American Chemical Society. 85: 2149–2154; and Houghten R. A. 1985. General methods for the rapid solid phase synthesis of large numbers of peptides: specificity of antigen antibody interaction at the level of individual amino acids. Proc. Natl. Acad. Sci. USA. 82: 5131–5135.) under the methods of good manufacture practices (GMP). A resin p-methyl benzidrylamine (MBHA) (0.7 meq/g), t-boc amino acids (Bachem, USA) and the process of high-low cleavage were used in the synthesis. (Andreu D, Merrifield RB, Steiner H, Boman HG. 1983. Solid-phase synthesis of Cecropin A and Related Peptides. Proc. Natl. Acad. Sci USA 80: 6475–6479.). Once synthesized, the peptides were extracted with 10% acetic acid in water. The peptides were purified by high pressure liquid chromatography (HPLC), in a reverse phase column, and they were analyzed by means of mass spectrometry (Maldi-Tof). The peptides were lyophilized and kept in powder at 4° C. until its use."}, "[2]": {"tested_on": "Escherichia coli (ATCC 25922)", "conditions": "ATCC 25922, 2 h, 7.1 μM"}, "[3]": {"tested_on": "Staphylococcus aureus (ATCC 25923)", "conditions": "ATCC 25923, 2 h, 7.1 μM"}, "[4]": {"tested_on": "Streptococcus pneumoniae (ATCC 49619)", "conditions": "ATCC 49619, 2 h, 7.1 μM"}, "[5]": {"tested_on": "Bacteroides fragilis (ATCC 25285)", "conditions": "ATCC 25285, 2 h, 7.1 μM"}, "[6]": {"tested_on": "Clostridium perfringens (ATCC 13124)", "conditions": "ATCC 13124, 2 h, 7.1 μM"}, "[7]": {"tested_on": "inner membrane of rat liver mitochondria", "experiment": "Mitochondrial swelling in isotonic media (ionophoric activity)", "format": "biochemical", "conditions": "pH 7.4", "experimental": "FIG. 1 Ionophoric activity of P1 in the inner membrane of rat liver mitochondria. The mitochondria at a concentration of 0.5 mg/ml of protein were incubated in the media 125 mM KNO3, 5 mM HEPES-tris, pH 7.4 (Panel A) and 125 mM NH4NO3, 5 mM HEPES-tris, pH 7.4 (Panel B), both media were supplemented with 2.5 μM rotenone and 1 μM oligomycin (RO), added just after the mitochondria. The peptide P1 was added at the following final concentrations: 1.8 μM of P1 (curves a); 0.36 μM of P1 (curves b); 0.18 μM of P1 (curves c); 0.18 μM of P1 plus 2.5 mM of succinate (curves d); 0.12 μM of valinomycin (curve e), and 2 μM of FCCP, (curve f). In Panel C, the permeability of the inner mitochondrial membrane induced by the peptide P1 was evaluated for the following cations: H^+, K^+, Na^+, and Tris^+. […]\nThe mitochondria were isolated and prepared as described above. […] The mitochondrial swelling was spectrophotometrically monitored at 540 nm (Turner Spectrophotometer, model SP-850, USA, modified with a magnetic mini-stirrer). The curves were recorded in a graphical recorder (Linseis model L250E, USA), scanned and then processed in the program Adobe Photoshop V5.0. […]"}},
  "note": "No end group written: not given here.",
  "data": [
    {"compound": "VAPIAKYLATALAKWALKQGFAKLKS-NH2 (C-terminus assumed) [P1]", "values": [
      {"measurement": "Percentage of hemolysis, X ± SD", "setting": "human red blood cells; 0.36 μM P1, isotonic medium KCl 150 mM", "result": "17.25 ± 1.05", "unit": "%"},
      {"measurement": "Percentage of hemolysis, X ± SD", "setting": "human red blood cells; 0.36 μM P1, isotonic medium NaCl 150 mM", "result": "3.75 ± 0.05", "unit": "%"},
      {"measurement": "Percentage of hemolysis, X ± SD", "setting": "human red blood cells; 0.36 μM P1, isotonic medium PEG-1500 150 mM", "result": "0.25 ± 0.07", "unit": "%"},
      {"measurement": "Percentage of hemolysis, X ± SD", "setting": "human red blood cells; 0.36 μM P1, isotonic medium Saccharose 150 mM", "result": "57.5 ± 0.73", "unit": "%"},
      {"measurement": "Permeability order of hemolytic activity by isotonic medium", "setting": "human red blood cells; 0.36 μM peptide, order disappears at 3.6 μM", "result": "saccharose>KCl>NaCl"},
      {"measurement": "Percentage of hemolysis, X ± SD", "setting": "human red blood cells; 3.6 μM P1, isotonic medium KCl 150 mM", "result": "64.25 ± 1.23", "unit": "%"},
      {"measurement": "Percentage of hemolysis, X ± SD", "setting": "human red blood cells; 3.6 μM P1, isotonic medium NaCl 150 mM", "result": "59.25 ± 1.15", "unit": "%"},
      {"measurement": "Percentage of hemolysis, X ± SD", "setting": "human red blood cells; 3.6 μM P1, isotonic medium PEG-1500 150 mM", "result": "2.75 ± 0.3", "unit": "%"},
      {"measurement": "Percentage of hemolysis, X ± SD", "setting": "human red blood cells; 3.6 μM P1, isotonic medium Saccharose 150 mM", "result": "75.5 ± 10.38", "unit": "%"},
      {"measurement": "Hemolytic activity with increased hematocryte", "setting": "human red blood cells; hematocryte increased at 10%, NaCl medium", "result": "decreases dramatically"},
      {"measurement": "Hemolytic activity in a physiological solution", "setting": "human red blood cells; hematocryte is high", "result": "insignificant"},
      {"measurement": "Hemolytic activity (in words)", "setting": "human red blood cells; isotonic medium PEG-1500", "result": "does not show hemolytic activity"},
      {"measurement": "Solubility in aqueous solutions", "setting": "[1]", "result": "highly soluble"},
      {"measurement": "% of growth inhibition", "setting": "[2]", "result": 100, "unit": "%"},
      {"measurement": "% of growth inhibition", "setting": "[3]", "result": 100, "unit": "%"},
      {"measurement": "% of growth inhibition", "setting": "[4]", "result": 100, "unit": "%"},
      {"measurement": "% of growth inhibition", "setting": "[5]", "result": 100, "unit": "%"},
      {"measurement": "% of growth inhibition", "setting": "[6]", "result": 100, "unit": "%"}
    ]},
    {"compound": "N#CC(C#N)=NNc1ccc(OC(F)(F)F)cc1", "note": "[FCCP, carbonyl-cyanide-p-trifluoromethoxy phenylhydrazone]", "values": [
      {"measurement": "Speed of mitochondrial swelling (slope)", "setting": "[7]; 2 μM FCCP, medium 125 mM NH4NO3, 5 mM HEPES-tris, FIG. 1 Panel B curve f", "result": 3.5}
    ]},
    {"compound": "CC(C)[C@@H]1NC(=O)[C@H](C)OC(=O)[C@@H](C(C)C)NC(=O)[C@@H](C(C)C)OC(=O)[C@H](C(C)C)NC(=O)[C@H](C)OC(=O)[C@@H](C(C)C)NC(=O)[C@@H](C(C)C)OC(=O)[C@H](C(C)C)NC(=O)[C@H](C)OC(=O)[C@@H](C(C)C)NC(=O)[C@@H](C(C)C)OC1=O", "note": "[valinomycin]", "values": [
      {"measurement": "Rate of mitochondrial swelling (slope)", "setting": "[7]; 0.12 μM valinomycin, medium 125 mM KNO3, 5 mM HEPES-tris, FIG. 1 Panel A curve e", "result": 1.4}
    ]}
  ]
}
